Results taken from ChEMBL document CHEMBL5150056, “Synthesis and antibiofilm evaluation of N-acyl-2-aminopyrimidine derivatives against Acinetobacter baumannii” (Bioorg Med Chem, 2022).
Values after ≈ are worked out from the molar mass of the structure shown.

Assays:
Type in all cases: functional
Details in all cases: time 18-24 hrs
Acinetobacter baumannii [1] = assay: Antibacterial activity against Acinetobacter baumannii S1 assessed as planktonic growth inhibition incubated for 18 to 24 hrs by CLSI protocol based assay
Acinetobacter baumannii [2] = assay: Antibiofilm activity against Acinetobacter baumannii S1 assessed as inhibition rate of biofilm formation at 100 uM incubated for 18 to 24 hrs by crystal violet staining based assay (reference value: 28.8 +/- 8.21%); parameters: scale not given: the % may be the effect or the level left
Acinetobacter baumannii [3] = assay: Antibacterial activity against Acinetobacter baumannii assessed as planktonic growth inhibition incubated for 18 to 24 hrs by CLSI protocol based assay

| MIC (Acinetobacter baumannii [1]) [µg/mL] | Compound | Activity (Acinetobacter baumannii [2]) [%] | MIC (Acinetobacter baumannii [3]) [µg/mL] |
| --- | --- | --- | --- |
| > 256 | CCCCCCCCCCCCCC(=O)Nc1nc(Cl)cc(N(C)C)n1 | 40.5 | – |
| > 256 | CCCCCCCC(=O)Nc1ncccn1 | 17.8 | – |
| > 256 | CCCCCCCCCCCCCCCC(=O)Nc1ncccn1 | 22.5 | – |
| – | CCCCCCCCCCCCCC(=O)Nc1nc(F)cc(F)n1 | 20.8 | – |
| > 256 | CCCCCCCCCCCCCC(=O)Nc1nc(Cl)cc(Cl)n1 | 63.1 | – |
| > 256 | Cc1cc(C)c(C(=O)Nc2ncccn2)c(C)c1 | 26.9 | – |
| > 256 | CCCCCCCCCCCCCC(=O)Nc1ncc(Cl)cn1 | 40.5 | – |
| – | CN[C@@H]1[C@@H](O)[C@@H](O[C@@H]2[C@@H](O)[C@H](O[C@H]3O[C@H]([C@@H](C)NC)CC[C@H]3N)[C@@H](N)C[C@H]2N)OC[C@]1(C)O.O=S(=O)(O)O | – | 1 |
| > 256 | O=C(Nc1ncccn1)C1CCC1 | 26.8 | – |
| > 256 | CCCCCCCCCCCCCC(=O)Nc1nc(Cl)cc(OC)n1 | 49.5 | – |
| > 256 | CCCCCCCCCCCCCC(=O)Nc1nccc(Cl)n1 | 44.9 | – |
| > 256 | O=C(COc1ccccc1)Nc1ncccn1 | 18.2 | – |
| > 256 | CCCC(=O)Nc1ncccn1 | 28.3 | – |
| – | Cc1onc(-c2ccccc2)c1C(=O)N[C@@H]1C(=O)N2[C@@H]1SC(C)(C)[C@@H]2C(=O)O [OXACILLIN] | – | 512 (≈ 1280 µM) |
| > 256 | CCCCCCCCCCCCCC(=O)Nc1nc(C)cc(O)n1 | 37.8 | – |
| > 256 | O=C(Nc1ncccn1)C(F)(F)C(F)(F)C(F)(F)F | 19.9 | – |
| – | O=C(N[C@H](CO)[C@H](O)c1ccc([N+](=O)[O-])cc1)C(Cl)Cl [CHLORAMPHENICOL] | – | 256 (≈ 792 µM) |
| > 256 | O=C(Nc1ncccn1)c1ccc([N+](=O)[O-])cc1 | 25.1 | – |
| > 256 | CCCCCC(=O)Nc1ncccn1 | 23.3 | – |
| > 256 | CCCCCCCCCCCCCC(=O)N1CCN(c2ncccn2)CC1 | 27.9 | – |
| > 256 | CCCCCCCCCCCCCC(=O)Nc1nc(Cl)cc(NC)n1 | 27 | – |
| > 256 | CC(C)CC(=O)Nc1ncccn1 | 3.8 | – |
